Experimental data as given in PMC10687071 (The Journal of Biological Chemistry, 2023).

Biological target: T1, PAS domain of EAG1 channels (Mus musculus, UniProt Q60603)
T1 construct: DNA encoding PAS (residues 7–136) of mouse EAG1 channels (GI # Q60603); 6-His (N); TEV protease cleavage site (N); made in house; host or cells: BL21 (DE3) Escherichia coli
T1 sequence (Q60603 7-136): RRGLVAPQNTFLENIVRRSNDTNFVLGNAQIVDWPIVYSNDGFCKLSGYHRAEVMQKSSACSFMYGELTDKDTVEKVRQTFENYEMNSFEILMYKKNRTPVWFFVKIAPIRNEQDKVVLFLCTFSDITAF
Experiment: Surface plasmon resonance, PAS domain immobilized on CM5 chip
Type: binding
Details: imipramine 1, 10 and 30 μM; concentration-dependent increase in SPR response; affinity not determined
Method: DNA encoding PAS (residues 7–136) of mouse EAG1 channels (GI # Q60603) was synthesized by BioBasic and subcloned into pETM11 bacterial expression vector containing an N-terminal 6-His affinity tag followed by a tobacco etch virus (TEV) protease cleavage site. The DNA sequences were verified by sequencing (Genewiz). The PAS domains were expressed in BL21 (DE3) Escherichia coli cells as previously described ([25], [63]). The cells were grown at 37 °C to an optical density at 600 nm of 0.6 to 0.8, induced with IPTG at 18 °C overnight and harvested by centrifugation. The cells were resuspended in 150 mM KCl, 1 mM TCEP, 1 mM ABSF, 2.5 mg/ml DNaseI and 30 mM HEPES, pH 7.5. Cells were lysed with an Emulsiflex-C5 (Avestin). Insoluble protein was separated by centrifugation in 45 Ti rotor at 30,000 rpm for 1 h at 4 °C. The PAS domains were purified by Ni^2+ affinity chromatography using HisTrap HP column (Cytiva) and eluted on a linear gradient to 500 mM imidazole. The protein was further purified on a Superdex 200 Increase 10/300 column (Cytiva) equilibrated with 150 mM KCl, 1 mM TCEP, 10% glycerol, and 30 mM HEPES, pH 7.5. The protein concentration was determined with Bradford Protein Assay Kit (Pierce).
All SPR binding experiments were performed on a CM5 chip (Cytiva) at 25 °C using a Biacore T200 Instrument (GE Healthcare). […]

CN(C)CCCN1c2ccccc2CCc2ccccc21 [imipramine]
SPR binding to the immobilized PAS domain: directly binds
